# US12473278B2 (Industry—University Cooperation Foundation Hangyang …, priority 2019, dated 2025)
# Read-outs that look alike come from different tables or passages of the source.
# Experiments:
# FLT1/VEGFR1 = FLT1/VEGFR1 (Homo sapiens (Human), UniProt P17948); experiment: Kinase panel screening; details: read-out: % inhibition rate
# Excerpt: (§1) Measurement of Inhibitory Activity Against Various Protein Kinases
# CDK2/cyclin E = CDK2/cyclin E (Homo sapiens (Human), UniProt P24941); experiment: Kinase panel screening; format: biochemical; details: read-out: % inhibition rate
# SYK = SYK (Homo sapiens (Human), UniProt P43405); experiment: Kinase panel screening; format: biochemical; details: single dose of 10 μM, read-out: % inhibition rate
# ERK1 = ERK1 (Homo sapiens (Human), UniProt P27361); experiment: Kinase panel screening; details: read-out: % inhibition rate
# Excerpt: as §1
# c-MET = c-MET (Homo sapiens (Human), UniProt P08581); experiment: Kinase panel screening; details: read-out: % inhibition rate
# Excerpt: as §1
# ROS/ROS1 = ROS/ROS1 (Homo sapiens (Human), UniProt P08922); experiment: Kinase panel screening; details: read-out: % inhibition rate
# Excerpt: as §1
# BTK = BTK (Homo sapiens (Human), UniProt Q06187); experiment: Kinase panel screening; details: read-out: % inhibition rate
# Excerpt: as §1
# ABL1 = ABL1 (Homo sapiens (Human), UniProt P00519); experiment: Kinase panel screening; format: biochemical; details: read-out: % inhibition rate
# FGFR3 = FGFR3 (Homo sapiens (Human), UniProt P22607); experiment: Kinase panel screening; details: read-out: % inhibition rate
# Excerpt: as §1
# BRAF = BRAF (Homo sapiens (Human), UniProt P15056); experiment: Kinase panel screening; details: read-out: % inhibition rate
# Excerpt: as §1
# JNK3 = JNK3 (Homo sapiens (Human), UniProt P53779); experiment: Kinase panel screening; details: read-out: % inhibition rate
# Excerpt: as §1
# Aurora A = Aurora A (Homo sapiens (Human), UniProt O14965); experiment: Kinase panel screening; details: read-out: % inhibition rate
# Excerpt: as §1
# c-Src = c-Src (Homo sapiens (Human), UniProt P12931); experiment: Kinase panel screening; details: read-out: % inhibition rate
# Excerpt: as §1
# RON/MSTIR = RON/MSTIR (Homo sapiens (Human), UniProt Q04912); experiment: Kinase panel screening; details: read-out: % inhibition rate
# Excerpt: as §1
# BRAF (V599E) = BRAF (V599E) (Homo sapiens (Human), UniProt P15056, V600E); experiment: Kinase panel screening; details: read-out: % inhibition rate
# Excerpt: as §1
# EGFR = EGFR (Homo sapiens (Human), UniProt P00533); experiment: Kinase panel screening; details: read-out: % inhibition rate
# Excerpt: as §1
# LCK = LCK (Homo sapiens (Human), UniProt P06239); experiment: Kinase panel screening; format: biochemical; details: read-out: % inhibition rate
# MTOR/FRAP1 = MTOR/FRAP1 (Homo sapiens (Human), UniProt P42345); experiment: Kinase panel screening; format: biochemical; details: read-out: % inhibition rate
# IGFIR = IGFIR (Homo sapiens (Human), UniProt P08069); experiment: Kinase panel screening; details: read-out: % inhibition rate
# Excerpt: as §1
# JAK3 = JAK3 (Homo sapiens (Human), UniProt P52333); experiment: Kinase panel screening; details: read-out: % inhibition rate
# Excerpt: as §1
# RAFI = RAFI (Homo sapiens (Human), UniProt P04049); experiment: Kinase panel screening; details: read-out: % inhibition rate
# Excerpt: as §1
# CDK1/cyclinB = CDK1/cyclinB (Homo sapiens (Human), UniProt P06493); experiment: Kinase panel screening; details: read-out: % inhibition rate
# Excerpt: as §1
# c-Kit = c-Kit (Homo sapiens (Human), UniProt P10721); experiment: Kinase panel screening; details: read-out: % inhibition rate
# Excerpt: as §1
# AKT1 = AKT1 (Homo sapiens (Human), UniProt P31749); experiment: Kinase panel screening; details: read-out: % inhibition rate
# Excerpt: as §1
# MEK1 = MEK1 (Homo sapiens (Human), UniProt Q02750); experiment: Kinase panel screening; details: read-out: % inhibition rate
# Excerpt: as §1
# ALK = ALK (Homo sapiens (Human), UniProt Q9UM73); experiment: Kinase panel screening; details: read-out: % inhibition rate
# Excerpt: as §1
# KDR/VEGFR2 = KDR/VEGFR2 (Homo sapiens (Human), UniProt P35968); experiment: Kinase panel screening; format: biochemical; details: read-out: % inhibition rate
# LYN = LYN (Homo sapiens (Human), UniProt P07948); experiment: Kinase panel screening; details: read-out: % inhibition rate
# Excerpt: as §1
# FMS = FMS (Homo sapiens (Human), UniProt P07333); experiment: Kinase panel screening; format: biochemical; details: read-out: % inhibition rate
# FLT3 [1] = target: T1, FLT3 (Homo sapiens (Human), UniProt P36888); experiment: Measurement of FLT3 enzyme activity; format: biochemical
# Excerpt: Measurement of FLT3 Enzyme Activity
# A change in FLT3 enzyme activity by treatment with the benzimidazole derivatives of the following Table 1 according to the present invention was confirmed by IC50.
# PLK1 = PLK1 (Homo sapiens (Human), UniProt P53350); experiment: Kinase panel screening; format: biochemical; details: read-out: % inhibition rate
# FLT3 [2] = target: T1, FLT3; experiment: Kinase panel screening; details: read-out: % inhibition rate
# Excerpt: as §1
# PKA = PKA (Homo sapiens (Human), UniProt P17612); experiment: Kinase panel screening; details: read-out: % inhibition rate
# Excerpt: as §1
# GSK3b = GSK3b (Homo sapiens (Human), UniProt P49841); experiment: Kinase panel screening; format: biochemical; details: read-out: % inhibition rate
# P38a/MAPK14 = P38a/MAPK14 (Homo sapiens (Human), UniProt Q16539); experiment: Kinase panel screening; details: read-out: % inhibition rate
# Excerpt: as §1
# T1 sequence (P36888 27-993): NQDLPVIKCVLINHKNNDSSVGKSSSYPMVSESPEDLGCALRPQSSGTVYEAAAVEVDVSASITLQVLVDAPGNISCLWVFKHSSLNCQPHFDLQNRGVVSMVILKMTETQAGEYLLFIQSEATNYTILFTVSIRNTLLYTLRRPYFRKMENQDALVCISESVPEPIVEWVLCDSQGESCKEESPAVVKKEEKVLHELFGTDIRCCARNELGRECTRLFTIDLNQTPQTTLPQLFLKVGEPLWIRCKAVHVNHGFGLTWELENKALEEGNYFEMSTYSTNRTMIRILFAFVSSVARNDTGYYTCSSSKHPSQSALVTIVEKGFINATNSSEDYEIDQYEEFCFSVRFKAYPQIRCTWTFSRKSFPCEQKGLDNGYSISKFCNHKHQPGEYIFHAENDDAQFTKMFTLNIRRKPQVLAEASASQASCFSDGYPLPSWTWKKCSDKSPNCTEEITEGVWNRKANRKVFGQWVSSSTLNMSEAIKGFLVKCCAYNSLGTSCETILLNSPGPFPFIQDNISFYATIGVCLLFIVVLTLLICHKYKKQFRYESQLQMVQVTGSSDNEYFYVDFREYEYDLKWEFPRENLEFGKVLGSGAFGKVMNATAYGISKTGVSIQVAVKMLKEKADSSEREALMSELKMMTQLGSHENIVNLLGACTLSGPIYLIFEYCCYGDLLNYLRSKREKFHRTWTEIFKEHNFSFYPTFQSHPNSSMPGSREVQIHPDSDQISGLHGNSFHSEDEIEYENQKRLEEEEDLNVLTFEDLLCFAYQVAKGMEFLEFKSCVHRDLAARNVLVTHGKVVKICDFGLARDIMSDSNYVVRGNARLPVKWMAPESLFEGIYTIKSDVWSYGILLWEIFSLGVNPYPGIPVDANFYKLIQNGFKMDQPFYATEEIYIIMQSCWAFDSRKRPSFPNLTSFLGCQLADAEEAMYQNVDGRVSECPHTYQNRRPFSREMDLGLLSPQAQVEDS
# Sequence of c-Src (P12931 whole entry, looked up, species assumed): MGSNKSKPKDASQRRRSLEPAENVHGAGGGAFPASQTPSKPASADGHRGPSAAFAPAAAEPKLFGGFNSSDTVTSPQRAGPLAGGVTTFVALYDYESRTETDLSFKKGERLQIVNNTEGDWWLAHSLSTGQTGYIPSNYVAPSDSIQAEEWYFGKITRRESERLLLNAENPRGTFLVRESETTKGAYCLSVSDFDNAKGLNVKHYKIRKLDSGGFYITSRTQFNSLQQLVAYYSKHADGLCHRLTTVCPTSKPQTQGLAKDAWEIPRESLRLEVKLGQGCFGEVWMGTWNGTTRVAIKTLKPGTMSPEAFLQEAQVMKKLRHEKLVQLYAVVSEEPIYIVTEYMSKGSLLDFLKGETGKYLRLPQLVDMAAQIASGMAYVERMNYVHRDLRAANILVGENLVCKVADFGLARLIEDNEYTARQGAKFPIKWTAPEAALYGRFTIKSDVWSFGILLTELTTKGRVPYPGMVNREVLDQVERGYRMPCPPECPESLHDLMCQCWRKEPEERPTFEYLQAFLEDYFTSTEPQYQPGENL
# Sequence of BRAF (P15056 whole entry, species assumed): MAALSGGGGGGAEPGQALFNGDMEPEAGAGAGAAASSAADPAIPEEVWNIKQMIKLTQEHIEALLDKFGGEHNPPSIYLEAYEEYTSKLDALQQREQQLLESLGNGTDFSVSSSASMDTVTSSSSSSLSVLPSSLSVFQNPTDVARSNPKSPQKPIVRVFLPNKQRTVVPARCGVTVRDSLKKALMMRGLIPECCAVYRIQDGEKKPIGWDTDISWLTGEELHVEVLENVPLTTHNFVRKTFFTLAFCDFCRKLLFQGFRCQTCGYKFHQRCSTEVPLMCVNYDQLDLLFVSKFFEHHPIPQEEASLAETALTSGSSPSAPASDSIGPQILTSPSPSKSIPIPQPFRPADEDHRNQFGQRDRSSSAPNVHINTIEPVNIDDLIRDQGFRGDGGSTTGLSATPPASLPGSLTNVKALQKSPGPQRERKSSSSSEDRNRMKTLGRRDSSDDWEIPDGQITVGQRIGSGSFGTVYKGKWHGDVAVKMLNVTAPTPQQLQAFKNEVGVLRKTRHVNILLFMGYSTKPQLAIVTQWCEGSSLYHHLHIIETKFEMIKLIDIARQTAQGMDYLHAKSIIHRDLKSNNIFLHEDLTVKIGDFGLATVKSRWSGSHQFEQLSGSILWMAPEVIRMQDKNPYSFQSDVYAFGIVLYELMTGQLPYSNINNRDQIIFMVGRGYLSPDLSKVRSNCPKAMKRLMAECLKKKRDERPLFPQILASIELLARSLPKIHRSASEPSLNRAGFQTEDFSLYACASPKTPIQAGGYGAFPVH
# Sequence of GSK3b (P49841 whole entry, species assumed): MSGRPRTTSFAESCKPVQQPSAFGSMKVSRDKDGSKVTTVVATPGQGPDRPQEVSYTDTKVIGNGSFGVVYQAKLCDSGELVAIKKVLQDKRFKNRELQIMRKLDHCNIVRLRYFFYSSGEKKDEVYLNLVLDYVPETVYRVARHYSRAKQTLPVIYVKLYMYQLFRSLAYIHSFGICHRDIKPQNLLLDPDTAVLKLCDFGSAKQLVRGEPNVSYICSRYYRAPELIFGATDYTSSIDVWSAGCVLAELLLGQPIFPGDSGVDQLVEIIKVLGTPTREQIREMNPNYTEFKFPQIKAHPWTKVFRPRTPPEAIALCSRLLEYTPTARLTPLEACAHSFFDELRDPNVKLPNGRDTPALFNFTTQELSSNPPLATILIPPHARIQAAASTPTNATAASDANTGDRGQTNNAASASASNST
# Sequence of FMS (P07333 20-972, species assumed): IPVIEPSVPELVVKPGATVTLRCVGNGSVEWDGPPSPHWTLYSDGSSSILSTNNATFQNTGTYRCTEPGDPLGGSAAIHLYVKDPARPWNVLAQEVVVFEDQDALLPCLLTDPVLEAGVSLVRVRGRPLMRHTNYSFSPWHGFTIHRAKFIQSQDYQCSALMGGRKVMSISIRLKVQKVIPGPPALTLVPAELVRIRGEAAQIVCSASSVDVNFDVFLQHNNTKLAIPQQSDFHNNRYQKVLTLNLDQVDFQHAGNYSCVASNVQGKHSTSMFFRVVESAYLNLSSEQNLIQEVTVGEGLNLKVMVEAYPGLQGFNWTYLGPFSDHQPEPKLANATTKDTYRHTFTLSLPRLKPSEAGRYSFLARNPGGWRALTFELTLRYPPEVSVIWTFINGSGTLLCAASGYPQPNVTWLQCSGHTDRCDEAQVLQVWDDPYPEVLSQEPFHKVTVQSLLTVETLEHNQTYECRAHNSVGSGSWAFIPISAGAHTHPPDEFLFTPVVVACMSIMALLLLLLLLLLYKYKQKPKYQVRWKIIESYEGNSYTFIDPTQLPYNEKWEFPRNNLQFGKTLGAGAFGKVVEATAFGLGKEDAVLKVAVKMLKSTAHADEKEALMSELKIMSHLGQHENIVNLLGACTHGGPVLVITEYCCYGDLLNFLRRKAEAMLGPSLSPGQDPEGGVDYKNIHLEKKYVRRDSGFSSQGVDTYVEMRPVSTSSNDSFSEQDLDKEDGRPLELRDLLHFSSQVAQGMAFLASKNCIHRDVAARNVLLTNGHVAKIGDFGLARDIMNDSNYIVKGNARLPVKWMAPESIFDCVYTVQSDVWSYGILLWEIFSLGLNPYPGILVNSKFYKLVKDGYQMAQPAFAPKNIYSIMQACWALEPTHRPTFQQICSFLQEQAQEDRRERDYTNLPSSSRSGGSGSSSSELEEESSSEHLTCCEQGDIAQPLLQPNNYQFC
# Sequence of MEK1 (Q02750 whole entry): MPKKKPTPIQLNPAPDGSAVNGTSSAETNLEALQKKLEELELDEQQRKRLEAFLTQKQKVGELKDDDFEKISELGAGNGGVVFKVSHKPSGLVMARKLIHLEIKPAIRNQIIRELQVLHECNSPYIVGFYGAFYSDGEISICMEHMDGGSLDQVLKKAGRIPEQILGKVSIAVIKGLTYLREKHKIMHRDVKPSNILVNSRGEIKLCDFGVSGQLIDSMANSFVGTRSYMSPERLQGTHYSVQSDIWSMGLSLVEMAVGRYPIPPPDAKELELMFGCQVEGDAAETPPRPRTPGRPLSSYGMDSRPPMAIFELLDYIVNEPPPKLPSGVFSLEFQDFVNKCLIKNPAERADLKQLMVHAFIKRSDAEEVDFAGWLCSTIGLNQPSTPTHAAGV
# Sequence of AKT1 (P31749 whole entry, species assumed): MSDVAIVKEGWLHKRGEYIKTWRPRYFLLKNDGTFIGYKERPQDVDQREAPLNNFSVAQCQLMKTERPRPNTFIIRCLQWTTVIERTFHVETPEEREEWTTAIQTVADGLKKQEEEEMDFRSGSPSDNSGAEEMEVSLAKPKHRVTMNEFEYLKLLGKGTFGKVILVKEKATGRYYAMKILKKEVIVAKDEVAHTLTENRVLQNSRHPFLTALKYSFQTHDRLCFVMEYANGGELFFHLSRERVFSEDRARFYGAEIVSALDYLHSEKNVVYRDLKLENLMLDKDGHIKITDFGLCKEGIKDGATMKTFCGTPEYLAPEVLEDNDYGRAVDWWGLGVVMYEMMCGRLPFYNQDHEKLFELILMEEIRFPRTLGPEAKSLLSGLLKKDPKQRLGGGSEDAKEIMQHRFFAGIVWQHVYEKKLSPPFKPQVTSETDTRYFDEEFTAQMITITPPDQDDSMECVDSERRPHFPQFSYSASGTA
# Sequence of LYN (P07948 whole entry): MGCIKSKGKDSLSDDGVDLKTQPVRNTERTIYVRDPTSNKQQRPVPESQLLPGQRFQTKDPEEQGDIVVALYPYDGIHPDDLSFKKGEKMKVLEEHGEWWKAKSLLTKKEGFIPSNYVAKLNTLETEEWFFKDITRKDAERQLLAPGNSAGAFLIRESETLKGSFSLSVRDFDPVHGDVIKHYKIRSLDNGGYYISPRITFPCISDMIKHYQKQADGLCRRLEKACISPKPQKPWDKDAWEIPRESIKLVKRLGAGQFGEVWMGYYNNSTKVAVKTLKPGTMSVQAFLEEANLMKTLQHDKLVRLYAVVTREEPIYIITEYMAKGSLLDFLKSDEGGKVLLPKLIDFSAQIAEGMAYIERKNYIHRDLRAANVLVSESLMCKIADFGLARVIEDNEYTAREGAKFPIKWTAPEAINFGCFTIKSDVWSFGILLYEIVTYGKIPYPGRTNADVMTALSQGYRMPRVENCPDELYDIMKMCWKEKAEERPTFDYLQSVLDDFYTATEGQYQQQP
compound,measurement,setting,value
"Cc1oncc1C(=O)Nc1ccc2[nH]c(-c3cc(N4CCOCC4)cc(C(F)(F)F)c3)nc2c1 [Compound 5b, 5-methyl-N-(2-(3-morpholino-5-(trifluoromethyl)phenyl)-1H-benz[d]imidazol-5-yl)isoxazole-4-carboxamide]",inhibition at 10 µM,FLT1/VEGFR1,0%
same,inhibition at 10 µM,CDK2/cyclin E,0%
same,inhibition at 10 µM,SYK,2.18%
same,inhibition at 10 µM,ERK1,0%
same,inhibition at 10 µM,c-MET,0%
same,inhibition at 10 µM,ROS/ROS1,7.4%
same,inhibition at 10 µM,BTK,19.3%
same,inhibition at 10 µM,ABL1,0%
same,inhibition at 10 µM,FGFR3,0%
same,inhibition at 10 µM,BRAF,0%
same,inhibition at 10 µM,JNK3,0%
same,inhibition at 10 µM,Aurora A,6.4%
same,inhibition at 10 µM,c-Src,0%
same,inhibition at 10 µM,RON/MSTIR,0%
same,inhibition at 10 µM,BRAF (V599E),25.2%
same,inhibition at 10 µM,EGFR,0%
same,inhibition at 10 µM,LCK,0%
same,inhibition at 10 µM,MTOR/FRAP1,0%
same,inhibition at 10 µM,IGFIR,0%
same,inhibition at 10 µM,JAK3,0.94%
same,inhibition at 10 µM,RAFI,15.7%
same,inhibition at 10 µM,CDK1/cyclinB,2.76%
same,inhibition at 10 µM,c-Kit,0%
same,inhibition at 10 µM,AKT1,10.9%
same,inhibition at 10 µM,MEK1,0%
same,inhibition at 10 µM,ALK,0%
same,inhibition at 10 µM,KDR/VEGFR2,0%
same,inhibition at 10 µM,LYN,0%
same,inhibition at 10 µM,FMS,0%
same,IC50,"FLT3 [1]; FLT3 enzyme activity, read-out: FLT3 (IC50)",3 to 10 µM
same,IC50,"FLT3 [1]; FLT3 kinase activity, read-out: IC50 against FLT3",7.94 µM
same,inhibition at 10 µM,PLK1,2.86%
same,inhibition at 10 µM,FLT3 [2],73%
same,inhibition at 10 µM,PKA,2.38%
same,inhibition at 10 µM,GSK3b,2.8%
same,inhibition at 10 µM,P38a/MAPK14,0%
